{"source": "ChEMBL document CHEMBL4219265", "about": "“Piperlongumine derivative, CG-06, inhibits STAT3 activity by direct binding to STAT3 and regulating the reactive oxygen species in DU145 prostate carcinoma cells” (Bioorg Med Chem Lett, 2018)", "key": {"DU-145 [1]": {"tested_on": "DU-145", "experiment": "Growth inhibition of human DU145 cells after 48 hrs by WST-1 assay", "assay_type": "functional", "conditions": "DU-145, 48 h"}, "PC-3": {"tested_on": "PC-3", "experiment": "Growth inhibition of human PC3 cells after 48 hrs by WST-1 assay", "assay_type": "functional", "conditions": "PC-3, 48 h"}, "[2]": {"target": "T1, Signal transducer and activator of transcription 3 (Homo sapiens, UniProt P40763)", "T1 sequence (P40763 whole entry)": "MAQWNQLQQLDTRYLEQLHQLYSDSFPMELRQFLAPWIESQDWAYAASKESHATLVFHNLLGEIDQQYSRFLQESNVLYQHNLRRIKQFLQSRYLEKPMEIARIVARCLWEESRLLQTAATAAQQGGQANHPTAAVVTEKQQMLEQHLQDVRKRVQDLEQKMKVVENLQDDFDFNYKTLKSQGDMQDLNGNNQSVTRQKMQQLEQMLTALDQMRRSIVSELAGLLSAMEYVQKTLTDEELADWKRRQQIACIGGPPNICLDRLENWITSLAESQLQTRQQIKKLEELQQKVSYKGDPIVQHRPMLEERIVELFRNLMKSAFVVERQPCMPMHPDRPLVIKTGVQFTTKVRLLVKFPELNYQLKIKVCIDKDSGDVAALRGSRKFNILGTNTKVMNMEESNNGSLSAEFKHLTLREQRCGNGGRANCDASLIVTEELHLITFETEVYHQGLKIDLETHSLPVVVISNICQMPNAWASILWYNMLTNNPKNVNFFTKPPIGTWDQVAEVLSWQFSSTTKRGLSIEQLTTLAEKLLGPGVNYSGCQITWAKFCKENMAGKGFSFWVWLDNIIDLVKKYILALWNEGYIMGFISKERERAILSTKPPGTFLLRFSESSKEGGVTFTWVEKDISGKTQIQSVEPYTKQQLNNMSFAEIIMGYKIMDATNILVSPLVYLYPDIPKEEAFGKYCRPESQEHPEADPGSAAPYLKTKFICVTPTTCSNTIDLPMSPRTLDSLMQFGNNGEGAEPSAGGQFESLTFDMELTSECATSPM", "experiment": "Inhibition of STAT3 phosphorylation at Tyr705 residues in human DU145 cells at 5 uM after 24 hrs by Western blot analysis", "assay_type": "cell-based"}, "[3]": {"target": "T1, Signal transducer and activator of transcription 3", "experiment": "Inhibition of STAT3 phosphorylation at Tyr705 residues in human DU145 cells assessed as ratio of phosphorylated STAT3 protein level to GAPDH protein level at 0.5 uM after 24 hrs by Western blot analysis (reference value: 1)", "assay_type": "cell-based"}, "[4]": {"target": "T1, Signal transducer and activator of transcription 3", "experiment": "Inhibition of STAT3 phosphorylation at Tyr705 residues in human DU145 cells assessed as ratio of phosphorylated STAT3 protein level to GAPDH protein level at 5 uM after 24 hrs by Western blot analysis (reference value: 1)", "assay_type": "cell-based"}, "DU-145 [5]": {"tested_on": "DU-145", "experiment": "Effect on total STAT3 protein level in human DU145 cells assessed as ratio of STAT3 protein level to GAPDH protein level at 0.1 uM after 24 hrs by Western blot analysis (reference value: 1)", "assay_type": "ADME, cell-based", "conditions": "du-145, 24 h"}, "DU-145 [6]": {"tested_on": "DU-145", "experiment": "Effect on total STAT3 protein level in human DU145 cells assessed as ratio of STAT3 protein level to GAPDH protein level at 0.5 uM after 24 hrs by Western blot analysis (reference value: 1)", "assay_type": "ADME, cell-based", "conditions": "du-145, 24 h"}, "[7]": {"target": "T1, Signal transducer and activator of transcription 3", "experiment": "Inhibition of STAT3 phosphorylation at Tyr705 residues in human DU145 cells assessed as ratio of phosphorylated STAT3 protein level to GAPDH protein level at 5 uM after 1 hr by Western blot analysis (reference value: 1)", "assay_type": "cell-based"}, "[8]": {"target": "T1, Signal transducer and activator of transcription 3", "experiment": "Inhibition of STAT3 phosphorylation at Tyr705 residues in human DU145 cells assessed as ratio of phosphorylated STAT3 protein level to GAPDH protein level at 5 uM after 3 hrs by Western blot analysis (reference value: 1)", "assay_type": "cell-based"}, "DU-145 [9]": {"tested_on": "DU-145", "experiment": "Effect on total STAT3 protein level in human DU145 cells assessed as ratio of STAT3 protein level to GAPDH protein level at 5 uM after 0.5 hrs by Western blot analysis (reference value: 1)", "assay_type": "ADME, cell-based", "conditions": "du-145, 0.5 h"}, "DU-145 [10]": {"tested_on": "DU-145", "experiment": "Effect on total STAT3 protein level in human DU145 cells assessed as ratio of STAT3 protein level to GAPDH protein level at 5 uM after 3 hrs by Western blot analysis (reference value: 1)", "assay_type": "ADME, cell-based", "conditions": "du-145, 3 h"}, "DU-145 [11]": {"tested_on": "DU-145", "experiment": "Effect on total STAT3 protein level in human DU145 cells assessed as ratio of STAT3 protein level to GAPDH protein level at 5 uM after 12 hrs by Western blot analysis (reference value: 1)", "assay_type": "ADME, cell-based", "conditions": "du-145, 12 h"}, "[12]": {"target": "T1, Signal transducer and activator of transcription 3", "experiment": "Inhibition of STAT3 in human DU145 cells assessed as ratio of Bcl-xl protein level to tubulin protein level at 5 uM after 48 hrs by Western blot analysis (reference value: 1)", "assay_type": "cell-based"}, "[13]": {"target": "T1, Signal transducer and activator of transcription 3", "experiment": "Inhibition of IL-6-mediated STAT3 phosphorylation in human LNCAP cells assessed as ratio of phosphorylated STAT3 protein level to GAPDH protein level at 5 uM preincubated for 12 hrs followed by IL-6 stimulation for 30 mins by Western blot analysis (reference value: 7.5)", "assay_type": "cell-based"}, "LNCaP": {"tested_on": "LNCaP", "experiment": "Effect on total STAT3 protein level in human LNCAP cells assessed as ratio of STAT3 protein level to GAPDH protein level at 5 uM after 12 hrs by Western blot analysis (reference value: 1)", "assay_type": "ADME, cell-based"}, "DU-145 [14]": {"tested_on": "DU-145", "experiment": "Induction of apoptosis in human DU145 cells at 5 uM after 12 hrs by flow cytometry (reference value: 0.61%)", "assay_type": "functional"}, "DU-145 [15]": {"tested_on": "DU-145", "experiment": "Induction of apoptosis in human DU145 cells at 5 uM after 24 hrs by flow cytometry (reference value: 0.61%)", "assay_type": "functional"}, "DU-145 [16]": {"tested_on": "DU-145", "experiment": "Cell cycle arrest in human DU145 cells assessed as accumulation at G2/M phase at 5 uM after 24 hrs by flow cytometry (reference value: 18.12%)", "assay_type": "functional"}, "[17]": {"target": "T1, Signal transducer and activator of transcription 3", "experiment": "Binding affinity to STAT3 in human DU145 cell lysates assessed as reduction in pronase-induced STAT3 digestion by measuring ratio of STAT3 protein level to GAPDH protein level at 50 uM incubated for 1 hr followed by 0.02% pronase addition for 10 mins by Western blot analysis (reference value: 0.6)"}, "[18]": {"target": "T1, Signal transducer and activator of transcription 3", "experiment": "Stabilization of STAT3 in human DU145 cell lysates by measuring ratio of STAT3 protein level to GAPDH protein level at 50 uM incubated for 1 hr in absence of pronase by Western blot analysis (reference value: 1)"}, "[19]": {"target": "T1, Signal transducer and activator of transcription 3", "experiment": "Binding affinity to STAT3 in human DU145 cell lysates assessed as reduction in pronase-induced STAT3 digestion by measuring ratio of STAT3 protein level to GAPDH protein level at 1 uM incubated for 1 hr in absence of pronase by Western blot analysis (reference value: 1)"}, "[20]": {"target": "T1, Signal transducer and activator of transcription 3", "experiment": "Binding affinity to STAT3 in human DU145 cell lysates assessed as reduction in pronase-induced STAT3 digestion by measuring ratio of STAT3 protein level to GAPDH protein level at 10 uM incubated for 1 hr in absence of pronase by Western blot analysis (reference value: 1)"}, "[21]": {"target": "T1, Signal transducer and activator of transcription 3", "experiment": "Binding affinity to STAT3 in human DU145 cell lysates assessed as reduction in pronase-induced STAT3 digestion by measuring ratio of STAT3 protein level to GAPDH protein level at 100 uM incubated for 1 hr in absence of pronase by Western blot analysis (reference value: 1)"}, "DU-145 [22]": {"tested_on": "DU-145", "experiment": "Induction of intracellular ROS generation in human DU145 cells at 5 uM by DCFH-DA probe based flow cytometry", "assay_type": "functional, cell-based", "conditions": "TDE = time-dependent effect"}, "[23]": {"target": "T1, Signal transducer and activator of transcription 3", "experiment": "Inhibition of STAT3-induced ERK1/2 phosphorylation in human DU145 cells assessed as ratio of phosphorylated ERK1/2 protein level to GAPDH protein level at 5 uM after 6 hrs by Western blot analysis (reference value: 1)", "assay_type": "cell-based"}, "DU-145 [24]": {"tested_on": "DU-145", "experiment": "Effect on total ERK1/2 protein level in human DU145 cells assessed as ratio of ERK1/2 protein level to GAPDH protein level at 5 uM after 0.5 hrs by Western blot analysis (reference value: 1)", "assay_type": "ADME, cell-based", "conditions": "du-145, 0.5 h"}, "DU-145 [25]": {"tested_on": "DU-145", "experiment": "Effect on total ERK1/2 protein level in human DU145 cells assessed as ratio of ERK1/2 protein level to GAPDH protein level at 5 uM after 1 hr by Western blot analysis (reference value: 1)", "assay_type": "ADME, cell-based", "conditions": "du-145, 1 h"}, "DU-145 [26]": {"tested_on": "DU-145", "experiment": "Effect on total ERK1/2 protein level in human DU145 cells assessed as ratio of ERK1/2 protein level to GAPDH protein level at 5 uM after 12 hrs by Western blot analysis (reference value: 1)", "assay_type": "ADME, cell-based", "conditions": "du-145, 12 h"}, "[27]": {"target": "T1, Signal transducer and activator of transcription 3", "experiment": "Inhibition of STAT3 phosphorylation in human DU145 cells assessed as ratio of phosphorylated STAT3 protein level to GAPDH protein level at 5 uM preincubated with NAC for 1 hr followed by compound addition for 1 hr by Western blot analysis (reference value: 0.3)", "assay_type": "cell-based"}}, "data": [{"smiles": "C=C(C)C(=O)N(Cc1ccc(Br)cc1)C(=O)/C=C/c1cc(OC)c(OC)c(OC)c1", "values": [{"measurement": "GI50", "setting": "DU-145 [1]", "value": 900, "unit": "nM"}, {"measurement": "GI50", "setting": "PC-3", "value": "> 10000", "unit": "nM"}, {"measurement": "inhibition", "setting": "[2]", "value": "> 70", "unit": "%"}, {"measurement": "Ratio", "setting": "[3]", "value": 0.7}, {"measurement": "Ratio", "setting": "[4]", "value": 0.3}, {"measurement": "Ratio", "setting": "DU-145 [5]", "value": 1.1}, {"measurement": "Ratio", "setting": "DU-145 [6]", "value": 1.1}, {"measurement": "Ratio", "setting": "[7]", "value": 0.3}, {"measurement": "Ratio", "setting": "[8]", "value": 0.2}, {"measurement": "Ratio", "setting": "DU-145 [9]", "value": 1}, {"measurement": "Ratio", "setting": "DU-145 [10]", "value": 1}, {"measurement": "Ratio", "setting": "DU-145 [11]", "value": 0.9}, {"measurement": "Ratio", "setting": "[12]", "value": 1}, {"measurement": "Ratio", "setting": "[13]", "value": 1.6}, {"measurement": "Ratio", "setting": "LNCaP", "value": 1.2}, {"measurement": "Activity", "setting": "DU-145 [14]", "value": 0.65, "unit": "%"}, {"measurement": "Activity", "setting": "DU-145 [15]", "value": 0.72, "unit": "%"}, {"measurement": "Activity", "setting": "DU-145 [16]", "value": 22.2, "unit": "%"}, {"measurement": "Ratio", "setting": "[17]", "value": 0.6}, {"measurement": "Ratio", "setting": "[18]", "value": 1}, {"measurement": "Ratio", "setting": "[19]", "value": 1}, {"measurement": "Ratio", "setting": "[20]", "value": 1.1}, {"measurement": "Ratio", "setting": "[21]", "value": 1.2}, {"measurement": "Activity", "setting": "DU-145 [22]", "value": "Tde"}, {"measurement": "Ratio", "setting": "[23]", "value": 2.2}, {"measurement": "Ratio", "setting": "DU-145 [24]", "value": 1.1}, {"measurement": "Ratio", "setting": "DU-145 [25]", "value": 1.1}, {"measurement": "Ratio", "setting": "DU-145 [26]", "value": 0.9}, {"measurement": "Ratio", "setting": "[27]", "value": 1.2}]}]}
